Data as given in PMC10165273, “Itch receptor MRGPRX4 interacts with the receptor activity–modifying proteins” (The Journal of Biological Chemistry, 2023).
Values joined by “and” are separate entries in the source; they are usually repeats but may differ in a detail not shown here. Identical values can stand only once. Like-named read-outs stand apart in the source and are kept apart here.

Target: T1, MRGPRX4 (Homo sapiens, UniProt Q96LA9)
T1 construct: expressed in transfected cells; host or cells: HEK293T
Assay: IP1 accumulation HTRF assay, MRGPRX4
Type: cell-based
Set-up: key to IP1 Basal / IP1 accumulation with YM (Figure 1c) / response to agonist, MRGPRX4 / IP1 accumulation: % IP1: unstimulated mock-transfected = 0%, fully stimulated MRGPRX4 = 100%
Details: for IP1 accumulation: MRGPRX4 alone, Fig S3d-f
Method: HEK293T cells were transfected with 1 pg/cell of MRGPRX4 DNA, and the amount of DNA was kept constant at 2 pg/cell with pcDNA3.1(+) empty vector, unless otherwise specified. Twenty four hours after transfection, IP1 assay was performed as previously described ([51]). When applicable, cells were treated with 1 μM YM254890 (YM) or different concentrations of U73122 for 1 h prior to addition of agonist or buffer. After incubation for 2 h, HTRF reagents and IP1 calibration standards were added and incubated for 2 h in the dark at room temperature. Time-resolved fluorescence signals were read on the BioTek Synergy NEO-TRF Hybrid multi-mode reader (BioTek Instruments). All data were carried out in three independent experiments with three technical replicate each.
For characterization of the Tet-On Nluc-HT7-MRGPRX4-GFP10-1D4 construct, HEK293T cells were transfected as previously described with some modifications. Dox dose-response of NLuc-HT7-MRGPRX4-GFP10-1D4 DNA titration was assayed by transfecting HEK293T cells with either 1 or 2 pg/cell of NLuc-HT7-MRGPRX4-GFP10-1D4 construct. Receptor expression was induced 4 h after transfection with addition of different concentrations of dox for 20 h. For the RAMP DNA titration assay, cells were cotransfected with a constant amount of 1 pg/cell of NLuc-HT7-MRGPRX4-GFP10-1D4 DNA and 1, 0.75, 0.5, or 0 pg/cell of each HA-RAMP-OLLAS with the homogenous transfection method. Four hours after transfection, receptor expression was induced with addition of 1000 ng/ml dox. Twenty hours after induction, IP1 assay was performed.
Data reduction, standard calibration, and transformation of HTRF data were performed as previously described ([51]). Normalized IP1 values were calculated relative to the unstimulated mock-transfected cells (set to 0%) and fully stimulated MRGPRX4 (alone if applicable) (set to 100%).

T1 sequence (Q96LA9 whole entry): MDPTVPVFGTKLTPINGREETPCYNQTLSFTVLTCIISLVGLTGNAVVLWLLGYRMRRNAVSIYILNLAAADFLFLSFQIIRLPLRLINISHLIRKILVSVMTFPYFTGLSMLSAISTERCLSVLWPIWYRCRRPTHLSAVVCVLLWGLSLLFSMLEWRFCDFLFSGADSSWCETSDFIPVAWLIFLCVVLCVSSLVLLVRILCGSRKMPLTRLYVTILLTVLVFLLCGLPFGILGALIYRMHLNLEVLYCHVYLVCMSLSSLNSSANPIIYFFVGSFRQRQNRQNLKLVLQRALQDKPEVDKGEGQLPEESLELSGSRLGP

## C[C@H](CCC(=O)O)[C@H]1CC[C@H]2[C@@H]3CC[C@@H]4C[C@H](O)CC[C@]4(C)[C@H]3C[C@H](O)[C@]12C [DCA, deoxycholic acid]
Figure 4a bottom, MRGPRX4 alone (reference = 100), individual replicates
  efficacy: 100
Figure 4a bottom, MRGPRX4 alone (reference = 100), individual replicates, read-out: efficacy
  Emax: 100%
Figure 4c-f, agonist 100µM, MRGPRX4 alone (reference = 100)
  response to agonist, MRGPRX4: 100
HA-MRGX4-1D4, log [agonist] (M) -4
  normalized IP1 accumulation: 58.1095 and 47.3107
HA-MRGX4-1D4, log [agonist] (M) -4.69897
  normalized IP1 accumulation: 33.2327 and 34.6328
HA-MRGX4-1D4, log [agonist] (M) -5.39794
  normalized IP1 accumulation: 18.9895
HA-MRGX4-1D4, log [agonist] (M) -6.09691
  normalized IP1 accumulation: 13.2757 and 15.4467
HA-MRGX4-1D4, log [agonist] (M) -6.79588
  normalized IP1 accumulation: 13.3916 and 13.9578
HA-MRGX4-1D4, log [agonist] (M) -7.49485
  normalized IP1 accumulation: 12.579 and 14.4894
HEK-293T, MRGPRX4 (Fig. 1A), HEK293T, normalized to 100 μM nateglinide, read-out: IP1 Emax
  Emax: 77.9%
HEK-293T, MRGPRX4 (Fig. 1A), HEK293T, normalized to 100 μM nateglinide, read-out: IP1 span
  Emax: 62.9%
MRGPRX4 0.125 pg DNA/cell, individual experiments, read-out: efficacy (Figure 1b bottom)
  Emax: 47.9%
MRGPRX4 0.25 pg DNA/cell, individual experiments, read-out: efficacy (Figure 1b bottom)
  Emax: 45%
MRGPRX4 0.5 pg DNA/cell, individual experiments, read-out: efficacy (Figure 1b bottom)
  Emax: 58.3%
MRGPRX4 1 pg DNA/cell, individual experiments, read-out: efficacy (Figure 1b bottom)
  Emax: 70.6%
MRGPRX4 2 pg DNA/cell, individual experiments, read-out: efficacy (Figure 1b bottom)
  Emax: 80.7%
MRGPRX4 (Fig. 1A), HEK293T, normalized to 100 μM nateglinide
  IP1 Basal: 15.03
MRGPRX4 DNA 0.25 pg/cell (Fig. S1)
  IP1 Basal: 4.249
MRGPRX4 DNA 0.25 pg/cell (Fig. S1), read-out: IP1 Emax
  Emax: 54.2%
MRGPRX4 DNA 0.25 pg/cell (Fig. S1), read-out: IP1 span
  Emax: 50%
MRGPRX4 DNA 0.5 pg/cell (Fig. S1)
  IP1 Basal: 6.783
MRGPRX4 DNA 0.5 pg/cell (Fig. S1), read-out: IP1 Emax
  Emax: 68%
MRGPRX4 DNA 0.5 pg/cell (Fig. S1), read-out: IP1 span
  Emax: 61.2%
MRGPRX4 DNA 1 pg/cell (Fig. S1)
  IP1 Basal: 9.471
MRGPRX4 DNA 1 pg/cell (Fig. S1), read-out: IP1 Emax
  Emax: 73.8%
MRGPRX4 DNA 1 pg/cell (Fig. S1), read-out: IP1 span
  Emax: 64.3%
MRGPRX4 DNA 2 pg/cell (Fig. S1)
  IP1 Basal: 12.99
MRGPRX4 DNA 2 pg/cell (Fig. S1), read-out: IP1 Emax
  Emax: 87.2%
MRGPRX4 DNA 2 pg/cell (Fig. S1), read-out: IP1 span
  Emax: 74.2%
MRGPRX4 DNA […] (Fig. S1), read-out: IP1 Emax
  Emax: 50.3%
MRGPRX4 DNA […] (Fig. S1), read-out: IP1 span
  Emax: 47%
Log [DCA] (M) -4.69897
  IP1 accumulation: 57.1868 and 75.4734
Log [DCA] (M) -5.39794
  IP1 accumulation: 30.3386
Log [DCA] (M) -6.09691
  IP1 accumulation: 23.4514 and 33.1858
Log [DCA] (M) -6.79588
  IP1 accumulation: 21.3567 and 30.9234
Log [DCA] (M) -7.49485
  IP1 accumulation: 19.4869 and 27.2792
SP-FLAG-Nluc-HT7-MRGX4_Tet-GFP10-1D4, log [agonist] (M) -4.09691
  normalized IP1 accumulation: 41.457 and 40.0931
SP-FLAG-Nluc-HT7-MRGX4_Tet-GFP10-1D4, log [agonist] (M) -4.79588
  normalized IP1 accumulation: 23.5519 and 24.4487
SP-FLAG-Nluc-HT7-MRGX4_Tet-GFP10-1D4, log [agonist] (M) -5.49485
  normalized IP1 accumulation: 12.8144 and 13.3904
SP-FLAG-Nluc-HT7-MRGX4_Tet-GFP10-1D4, log [agonist] (M) -6.19382
  normalized IP1 accumulation: 11.7164 and 10.0407
SP-FLAG-Nluc-HT7-MRGX4_Tet-GFP10-1D4, log [agonist] (M) -6.89279
  normalized IP1 accumulation: 9.829 and 11.4364
SP-FLAG-Nluc-HT7-MRGX4_Tet-GFP10-1D4, log [agonist] (M) -7.59176
  normalized IP1 accumulation: 10.7139 and 10.5391
SP-FLAG-Nluc-HT7-MRGX4_Tet-GFP10-1D4 no dox, log [agonist] (M) -4.09691
  normalized IP1 accumulation: 9.638 and 9.7
SP-FLAG-Nluc-HT7-MRGX4_Tet-GFP10-1D4 no dox, log [agonist] (M) -4.79588
  normalized IP1 accumulation: 7.503 and 8.174
SP-FLAG-Nluc-HT7-MRGX4_Tet-GFP10-1D4 no dox, log [agonist] (M) -5.49485
  normalized IP1 accumulation: 9.457 and 8.365
SP-FLAG-Nluc-HT7-MRGX4_Tet-GFP10-1D4 no dox, log [agonist] (M) -6.19382
  normalized IP1 accumulation: 8.686 and 8.091
SP-FLAG-Nluc-HT7-MRGX4_Tet-GFP10-1D4 no dox, log [agonist] (M) -6.89279
  normalized IP1 accumulation: 8.749 and 8.325
SP-FLAG-Nluc-HT7-MRGX4_Tet-GFP10-1D4 no dox, log [agonist] (M) -7.59176
  normalized IP1 accumulation: 8.705 and 9.2498
SP-Flag-MRGX4-1D4, log [agonist] (M) -4
  normalized IP1 accumulation: 68.6268 and 66.4742
SP-Flag-MRGX4-1D4, log [agonist] (M) -4.69897
  normalized IP1 accumulation: 30.127 and 33.8796
SP-Flag-MRGX4-1D4, log [agonist] (M) -5.39794
  normalized IP1 accumulation: 14.3992 and 13.1143
SP-Flag-MRGX4-1D4, log [agonist] (M) -6.09691
  normalized IP1 accumulation: 8.224 and 9.664
SP-Flag-MRGX4-1D4, log [agonist] (M) -6.79588
  normalized IP1 accumulation: 7.099 and 7.695
SP-Flag-MRGX4-1D4, log [agonist] (M) -7.49485
  normalized IP1 accumulation: 6.315 and 7.555
SP-Flag-MRGX4-GFP10-1D4, log [agonist] (M) -4
  normalized IP1 accumulation: 68.4519 and 65.3389
SP-Flag-MRGX4-GFP10-1D4, log [agonist] (M) -4.69897
  normalized IP1 accumulation: 36.0479 and 38.0394
SP-Flag-MRGX4-GFP10-1D4, log [agonist] (M) -6.09691
  normalized IP1 accumulation: 10.072 and 10.3886
SP-Flag-MRGX4-GFP10-1D4, log [agonist] (M) -6.79588
  normalized IP1 accumulation: 8.9869 and 9.025
SP-Flag-MRGX4-GFP10-1D4, log [agonist] (M) -7.49485
  normalized IP1 accumulation: 7.933 and 9.527
Construct FLAG-MRGPRX4-1D4 (Fig. S4A-F)
  IP1 Basal: 7.469
Construct FLAG-MRGPRX4-1D4 (Fig. S4A-F), read-out: IP1 Emax
  Emax: 96.3%
Construct FLAG-MRGPRX4-1D4 (Fig. S4A-F), read-out: IP1 span
  Emax: 88.8%
Construct FLAG-MRGPRX4-GFP10-1D4 (Fig. S4A-F)
  IP1 Basal: 8.165
Construct FLAG-MRGPRX4-GFP10-1D4 (Fig. S4A-F), read-out: IP1 Emax
  Emax: 88.5%
Construct FLAG-MRGPRX4-GFP10-1D4 (Fig. S4A-F), read-out: IP1 span
  Emax: 80.4%
Construct FLAG-NLuc-HT7-MRGPRX4-GFP10-1D4 (Fig. S4A-F)
  IP1 Basal: 10.56
Construct FLAG-NLuc-HT7-MRGPRX4-GFP10-1D4 (Fig. S4A-F), read-out: IP1 Emax
  Emax: 55%
Construct FLAG-NLuc-HT7-MRGPRX4-GFP10-1D4 (Fig. S4A-F), read-out: IP1 span
  Emax: 44.5%
Construct HA-MRGPRX4-1D4 (Fig. S4A-F)
  IP1 Basal: 12.52
Construct HA-MRGPRX4-1D4 (Fig. S4A-F), read-out: IP1 Emax
  Emax: 64.7%
Construct HA-MRGPRX4-1D4 (Fig. S4A-F), read-out: IP1 span
  Emax: 52.2%
